Measurements from patent publication US9000190B2, “Amide compound or salt thereof, biofilm inhibitor, biofilm remover and disinfectant containing the same” (The University of Tokyo, priority 2006, dated 2015).

Experiments:
[1] = tested on: S. aureus ATCC 29213; settings: Publicly-known data; cited from earlier work
[2] = tested on: P. aeruginosa ATCC 27853; settings: Publicly-known data; cited from earlier work
[3] = tested on: E. coli ATCC 25922; settings: Publicly-known data; cited from earlier work
[4] = tested on: Porphyromonas gingivalis 381-strain; test: Evaluation test for biofilm formation inhibition effect against periodontitis pathogenic bacteria (flow cell, HA disks, turbidity); assay type: cell-based; settings: for Mean OD Value / inhibition of biofilm formation caused by periodontitis pathogenic bacteria (conclusion in words): 100 μM; for Mean OD Value: turbidity of suspended biofilm at 550 nm; for inhibition of biofilm formation caused by periodontitis pathogenic bacteria (conclusion in words): 14 days
Procedure: As with Experiment Example 1, using the flow cell system of FIG. 1, an inhibitory effect against biofilm formation by periodontitis pathogenic bacteria was evaluated for each of the amide compounds produced in Production Examples 1, 3, 5, and 6 (Compounds 1a-1, 1b-1, 1c-1, 1c-2).
Periodontitis pathogenic bacteria Porphyromonas gingivalis 381-strain (clinical strain) was used.
A GAM culture medium containing hemin 5 μg/L and menadione 1 μg/L was used.
The 381-strain was inoculated in the GAM culture medium, and cultivated until stationary phase (OD550=1.8). Then the culture medium was diluted 20-fold by a fresh GAM culture medium containing the above-mentioned substances.
The test liquid was prepared by dissolving 100 μM of each of the Compounds 1a-1, 1b-1, 1c-1, or 1c-2 according to Production Examples 1, 3, 5 and 6 and 100 μM of Comparative Compounds 1 and 2 as comparative examples in dimethyl sulfoxide (DMSO), and supplying the resulting DMSO solutions to the above-mentioned bacterial suspensions so that the concentration of each compound becomes 0.1%(v/v).
(§1) A DMSO not containing the compound was used as a control test liquid.
The glass cell (4) of the flow cell system (see FIG. 1) was replaced with a stainless cell (3×7×120 mm), and 10 hydroxyapatite (HA) disks (6 mm in diameter, 1 mm in thickness) were placed in the cell. The HA disks had been subjected to salivary treatment overnight. Each of the test liquids and control test liquids was circulated in the system at a flow rate of 8 mL/min for 14 days. Note that the test liquids and the control test liquids were replaced with fresh liquids every two days.
After the cultivation, the HA disks were dipped in 300 μL of sterile distilled water, and treated by supersonic wave for 30 minutes at 4° C. The biofilms formed in the HA disks were peeled off and suspended in distilled water. Then, 100 μL of the suspension liquid was measured for the turbidity with an absorptiometer (C07500 colorimeter, product of Funakoshi) (measurement wavelength=550 nm).
A mean OD was found based on the resulting OD values, excluding the minimum and maximum values. Also, a mean value of the turbidities for the Control Test Liquids was found in the same manner as the control mean OD value. A biofilm formation inhibition rate (Inhibition Rate) was found by the following formula. Biofilm Formation Inhibition Rate (%)={(Mean OD Value)/(Mean Comparison OD Value)}×100

[5] = tested on: Pseudomonas aeruginosa (gfp expression PAO1-strain); test: Evaluation test for biofilm formation inhibition effect against Pseudomonas aeruginosa (flow cell system); assay type: cell-based; settings: flow 200 μL per minute, observed after 1, 48, 60, 72, 84 hours
Procedure: With the flow cell system shown in FIG. 1, an inhibitory effect against biofilm formation by Pseudomonas aeruginosa was evaluated for each of the amide compounds produced in Production Examples 1, 3, 5, 6 and 7 (Compounds 1a-1, 1b-1, 1c-1, 1c-2, 1d-1), and for each of Comparative Compounds (Comparative Example) 1 to 3 denoted by the following formulas.
A culture medium bottle (1), a peristaltic pump (2), a glass cell (4) and a waste fluid bottle (5) are connected via a silicon tube (6) so that a culture medium (9) is supplied to the glass cell (4) from the culture medium bottle (1) using the peristaltic pump (2). The system includes an air removal section (3) between the peristaltic pump (2) and a turncock (7a), for removing the entrained air. All instruments in the flow cell system are sterilized using gamma-rays or an autoclave.
As specifically described later, the inhibitory effect against biofilm formation of each of the amide compounds is examined in the following manner. Bacteria are cultured in a glass cell (4) to grow a biofilm on the inner wall of the cell, and a test liquid containing one of the amide compounds is applied to the biofilm. Then the state of the biofilm is observed to evaluate the inhibitory effect against biofilm formation of the compound using a fluorescence confocal microscope (Leica TCS SP2: product of Leica).
The bacteria was prepared by inserting a pTdk-LVAgfp plasmid into a Pseudomonas aeruginosa PAO1-strain using the electroportion method so that the Pseudomonas aeruginosa PAO1-strain is transformed to express Green Fluorescent Protein (hereinafter referred to as “gfp expression PAO1-strain”) (see Teresa R. et al., Applied and Environmental Microbiology, April 2001, p. 1865-1873).
A 30 mM glucose-containing FAB culture medium was used for preincubation, and a 0.3 mM glucose-containing FAB culture medium was used for main cultivation.
The glucose-containing FAB culture medium was prepared by adding 200 μg/mL of carbenicillin to an aqueous solution containing 30 mM glucose or 0.3 mM glucose, 15 mM ammonium sulfate, 33.7 mM disodium hydrogenphosphate dihydrate, 22.1 mM potassium dihydrogen phosphate, 51.7 mM sodium chloride, 0.47 mM magnesium chloride, 0.08 mM calcium chloride and the following 0.1% trace metal solution.
An aqueous solution containing 1.16 mM calcium sulfate dihydrate, 0.72 mM iron sulfate heptahydrate, 0.08 mM manganous sulfate monohydrate, 0.08 mM copper sulfate pentahydrate, 0.07 mM zinc sulfate heptahydrate, 0.04 mM cobalt sulfate heptahydrate, 0.04 mM […], and 0.08 mM boric acid.
A gfp expression PAO1-strain was inoculated in a 30 mM glucose-containing FAB culture medium, and was subjected to shake culture at 37° C. in an isothermal tank overnight. The obtained overnight culture liquid was diluted by a 30 mM glucose-containing FAB culture medium to OD590=0.1.
The test liquid was prepared by dissolving 100-250 μM of each of the Compounds 1a-1, 1b-1, 1c-1, 1c-2, or 1d-1 according to Production Examples 1, 3 and 5 to 7 and 100-250 μM of Comparative Compounds 1 to 3 as comparative examples in dimethyl sulfoxide (DMSO), and supplying the resulting DMSO solutions to a 0.3 mM glucose-containing FAB culture medium so that the concentration of each compound becomes 0.1%(v/v).
as §1
The flow cell system was filled with hydrous ethanol of 70 volume %, and was allowed to stand for at least 12 hours to sterilize the system. Then, air having been filtrated by a membrane filter (8a) was supplied into the flow cell system using the peristaltic pump (2) to dry the system. Thereafter, the system was filled with a 0.3 mM glucose-containing FAB culture medium. 500 μL of a bacterial suspension was injected into the glass cell (4) from the upper surface, and the glass cell was sealed by turning off the three-way turncock (7a,7b). The cell as such was allowed to stand for 1 hour at room temperature. […]

[6] = tested on: Pseudomonas aeruginosa (gfp expression PAO1-strain); test: Evaluation test for biofilm removal effect with respect to Pseudomonas aeruginosa (flow cell system); assay type: cell-based; settings: test liquid 100 μM; for state of biofilm removal (disappearance of deposited biofilm, fluorescence confocal microscope): observed after 3, 4, 5, 6, 7 and 10 days; for time course of biofilm during removal test: up to 10 days
Procedure: With the flow cell system of FIG. 1, a removal effect against biofilms formed by Pseudomonas aeruginosa was evaluated for each of the amide compounds produced in Production Examples 1, 3, 5, and 6 (Compounds 1a-1, 1b-1, 1c-1, 1c-2), and for Comparative Compounds 1 to 3 as comparative examples.
The evaluation for biofilm removal effect was performed as follows. After cultivation of bacterias in the glass cell (4) of the flow cell system to grow a biofilm in the inner cell wall, a test liquid containing one of the amide compounds was applied to the biofilm.
As with Experiment Example 1, a gfp expression PAO1-strain was used.
At for the culture medium, the glucose-containing FAB culture medium, trace metal solution, and bacterial suspension as those of Experiment Example 1 were used.
The test liquid was prepared by dissolving 100 μM of each of the Compounds 1a-1, 1b-1, 1c-1 and 1c-2 according to Production Examples 1, 3, 5 and 6 and 100 μM of Comparative Compounds 1 to 3 as comparative examples denoted by the following formula in dimethyl sulfoxide (DMSO), and supplying the resulting DMSO solutions to a 0.3 mM glucose-containing FAB culture medium so that the concentration of each compound becomes 0.1%(v/v).
as §1
The flow cell system was filled with hydrous ethanol (70 volume %), and was allowed to stand for at least 12 hours to sterilize the system. Then, air having been filtrated by a membrane filter (8a) was supplied into the flow cell system using the peristaltic pump (2) to dry the system. Thereafter, the system was filled with a 0.3 mM glucose-containing FAB culture medium. 500 μL of the bacterial suspension was injected into the glass cell (4) from the upper surface, and the glass cell was sealed by turning off the three-way turncock (7a,7b). The cell as such was allowed to stand for an hour at room temperature.
After the static culture, two of the three-way turncocks (7a,7b) were turned on, so as to supply each test liquid and control test liquid at a flow rate of 200 μL per minute. With a fluorescence confocal microscope, the process of biofilm formation (deposition) by the Pseudomonas aeruginosa (gfp expression PAO1-strain) adhered to the inner wall of the glass cell was observed three-dimensionally from above to observe changes over time (after 3 days, 4 days, 5 days, 6 days, 7 days, and 10 days). Note that the test liquid and the control test liquid were replaced with fresh liquids every 36 hours.

| Structure (SMILES) | state of biofilm formation (fluorescence confocal microscope) compared with control test liquid ([5]; test liquid 100 μM) | inhibition of biofilm formation caused by periodontitis pathogenic bacteria (conclusion in words) [4] | state of biofilm removal (disappearance of deposited biofilm, fluorescence confocal microscope) [6] | other results |
| --- | --- | --- | --- | --- |
| CC[C@H]1OC(=O)[C@H](C)[C@@H](O[C@H]2C[C@@](C)(OC)[C@@H](O)[C@H](C)O2)[C@H](C)[C@@H](O[C@@H]2O[C@H](C)C[C@H](N(C)C)[C@H]2O)[C@](C)(O)C[C@@H](C)CN(C)[C@H](C)[C@@H](O)[C@]1(C)O [AZM, Azithromycin] | – | – | – | MIC (μg/mL) from M100-S16 [1]: 0.5 to 2 µg/mL |
| CC(C)(O/N=C(\C(=O)N[C@@H]1C(=O)N2C(C(=O)[O-])=C(C[n+]3ccccc3)CS[C@H]12)c1csc(N)n1)C(=O)O [CAZ, Ceftazidime] | – | – | – | MIC (μg/mL) from M100-S16 [2]: 1 to 4 µg/mL; MIC (μg/mL) from M100-S16 [1]: 4 to 16 µg/mL; MIC (μg/mL) from M100-S16 [3]: 0.06 to 0.5 µg/mL |
| CCCCCCCCCC(=O)CC(=O)Nc1ccccc1O [Comparative Compound 1, reference compound] | the huge, thick biofilm was observed as in the control test | – | – | Mean OD Value ([4]; HA disks, circulated 14 days): 0.629 |
| CCCC(=O)NN1CCCC1 [Comparative Compound 2, reference compound] | the huge, thick biofilm was observed as in the control test | – | – | Mean OD Value ([4]; HA disks, circulated 14 days): 0.719; inhibition at 100 µM ([4]; Porphyromonas gingivalis, 381STRAIN, 336 h, HA disks, circulated 14 days, relative to control test liquid (DMSO), read-out: Biofilm Formation Inhibition Rate (%)): -49% |
| CCCC(=O)NN1CCCCC1 [Comparative Compound 3, reference compound] | the huge, thick biofilm was observed as in the control test | – | – | – |
| CCCCCCCCCCCC(=O)NC1CCNC1 (stereo not shown) [Compound 1a-1, N-(pyrrolidin-3-yl) dodecanoyl amide] | – | capable of inhibiting biofilm formation | the gradual disappearance of the deposited biofilm with time was observed | state of biofilm formation (fluorescence confocal microscope) compared with control test liquid ([5]; test liquid 250 μM): such biofilm formation was not observed |
| CCCCCCCCCCCC(=O)NC1CCNCC1 [Compound 1b-1, N-(piperidine-4-yl) dodecanoyl amide] | – | capable of inhibiting biofilm formation | the gradual disappearance of the deposited biofilm with time was observed | state of biofilm formation (fluorescence confocal microscope) compared with control test liquid ([5]; test liquid 250 μM): such biofilm formation was not observed |
| CCCCCCCCCCCC(=O)NN1CCCC1 [Compound 1c-1, N-(pyrrolidin-1-yl) dodecanoyl amide] | such biofilm formation was not observed | capable of inhibiting biofilm formation | the gradual disappearance of the deposited biofilm with time was observed | time course of biofilm during removal test [6]: the biofilm was first reduced and then increased again after a six-day cultivation, before it reduced again until it disappeared |
| CCCCCCCCCC(O)CC(=O)NN1CCCC1 (stereo not shown) [Compound 1c-2, N-(pyrrolidin-1-yl)-3-hydroxy dodecanoyl amide] | such biofilm formation was not observed | capable of inhibiting biofilm formation | the gradual disappearance of the deposited biofilm with time was observed | time course of biofilm during removal test [6]: the biofilm was first reduced and then increased again after a six-day cultivation, before it reduced again until it disappeared |
| CCCCCCCCCCCC(=O)NN1CCCCC1 [Compound 1d-1, N-(piperidine-1-yl) dodecanoyl amide] | such biofilm formation was not observed | – | – | – |
